According to US20260297164A1, “ANTI-FIBROTIC PEPTIDES AND USES THEREOF” (Deackt, Inc., priority 2021, published 2026):

Tested on: mouse lung fibroblasts
Experiment: FasL-induced cell death of TGF-β1-stimulated mouse lung fibroblasts
Assay type: cell-based
Conditions: wild-type cells, TGF-β1 stimulation; FasL 200 ng/ml
Text: FIG. 2. CD148 deficiency in fibroblasts worsens pulmonary fibrosis in bleomycin-treated mice and increases fibroblast activation in response to TGF-β1. CD148 fibroblast-specific knockout mice (Ptprj^fl/fl Col1a2^Cre-ER(T)+/0 were developed as described in Methods. (A) Ptprj^fl/fl Col1a2^Cre-ER(T)+/0 mice or Col1a2^Cre-ER(T)+/0 (wild type) mice were exposed to BLM to induce lung fibrosis. At day 21, mouse lungs were harvested and stained with Masson's trichrome (n=3 for saline and n=5 for BLM groups). (B) Hydroxyproline content was measured in the left lung of Ptprj^fl/fl Col1a2^Cre-ER(T)+/0 mice (n=12) and Col1a2^Cre-ER(T)+/0 (WT) mice (n=12) exposed to BLM, and Ptprj^fl/fl Col1a2^Cre-ER(T)+/0 (n=6) and Col1a2^Cre-ER(T)+/0 (n=6) exposed to saline; at day 21. (C) Relative survival at day 0-21 after BLM. (D-E), α-SMA and CD148 expression in harvested lungs were measured by western blot (n=3-5 for each condition). (F-G) Gene expression of Fn and Col1a1, and Ctgf in harvested lungs was measured using qPCR (n=5 for each condition). […] (I) mRNA levels of Col1a1 and Fn were measured by qPCR (n=5 for each condition). […] Gel contractility was measured at 0, 12 and 24 h after TGF-β1 (10 ng/ml) stimulation (n=6 for each condition). […] At 24 h, cell viability was measured with MTT assay (n=5 for each condition). […]

Question: Which “FasL-induced cell death and apoptosis” value does the source give for TGF-β1 here?
Answer: The value was “induced resistance”.
